According to US4001325A, “α-Chloroacetanilide selective herbicides” (Diamond Shamrock Corporation, priority 1973, dated 1977):

Tests used:
[1] = test system: corn; experiment: Example 17 damage to corn crop; type: in vivo; conditions: 2 lb/A
Text: (§1) This example illustrates the selective herbicidal activity of two of the presently preferred compounds of this invention against various weed species in a corn crop.
(§2) Plots of light sandy soil, cleared of all weeds, are uniformly treated with aqueous dispersions prepared from an emulsifiable concentrate containing 2- 4 pounds of active ingredient per gallon. Diluted aqueous dispersions are applied as surface treatments at 2.0, 1.0, 0.5, and 0.25 pound of active ingredient per acre (lb/A).
(§3) The treated test plots are sown to corn and with seeds of the following weed species:
(§4) Three to four weeks after planting, the degree of damage to both the corn stands and the weed plants is assessed from a rating of 0% (no injury) to 100% (complete destruction).

[2] = test system: Johnsongrass; experiment: Example 17 selective herbicidal activity in corn crop, weed kill; type: in vivo; conditions: Sorghum halepense, 3-4 weeks after planting
Text: as §1, §2, §3, §4

[3] = test system: Fall Panicum; experiment: as above; type: in vivo; conditions: Panicum dichotomiflorum, 3-4 weeks after planting
Text: as §1, §2, §3, §4

[4] = test system: Velvetleaf; experiment: as above; type: in vivo; conditions: Abutilon theophrasti, 3-4 weeks after planting
Text: as §1, §2, §3, §4

[5] = test system: Prickly Sida; experiment: Field preemergence test, weed control; type: in vivo; conditions: 3-4 weeks after planting
Text: Test plots of fertilized, light sandy soil containing 0.7% organic matter are sprayed uniformly with aqueous suspensions prepared from emulsifiable concentrates containing 12%, by weight, of the test chemicals diluted to provide dosage rates of the test compounds corresponding to 2.0, 1.0, 0.5, and 0.25 pound per acre (lb/A). The plots are then sown with seeds of the following crop plants: sweet corn, cotton (Coker 413) and soybeans, var. Davis. Seeds of the following weed plants are planted: redroot pigweed, prickly sida, common lambsquarter, goosegrass and giant foxtail.
Three to four weeks after planting, percent control (plant kill) of the test plants is estimated, from a rating of 0 which denotes no injury to the plant up to 100 which denotes complete destruction. The herbicidal action of the test compounds obtained on the weed species is as follows: […]

[6] = test system: Soybeans; experiment: Example 18 phytotoxic effects on crop stands in different soils; type: in vivo, soybean
Procedure: (§5) To further illustrate the herbicidal activity of compounds of this invention in different types of soil as would be encountered in different crop growing localities, a preemergence herbicide test is conducted generally as outlined previously herein. Two light sandy soils are employed containing 0.7% and 1.8% organic matter (O.M.), respectively, along with two loam-type, heavier soils containing either 2.0% or 5-5.5% organic matter (O.M.).
(§6) The test plots are all sprayed uniformly with formulations of the test compounds providing 2.0, 1.0, 0.5, and 0.25 pound of active chemical per acre (lb/A).
(§7) Prior to treatment, the soil plots are sown to field corn, soybean, and grain sorghum crops and seeds of barnyard-grass and yellow foxtail.
(§8) Three weeks after planting, the percent control of plant growth is rated from 0% (no injury) to 100% (total destruction). The results obtained are as follows:
(§9) Phytotoxic effects on the crop stands are similarly rated with the following results: […]

[7] = test system: Barnyardgrass; experiment: Example 18 preemergence herbicide test in different soils, % control; type: in vivo, barnyard-grass; conditions: three weeks
Procedure: as §5, §6, §7
Three weeks after planting, the percent control of plant growth is rated from 0% (no injury) to 100% (total destruction).

[8] = test system: Corn; experiment: Example 18 phytotoxic effects on crop stands in different soils; type: in vivo, field corn
Procedure: as §5, §6, §7, §8, §9

[9] = test system: Morningglory; experiment: Example 17 selective herbicidal activity in corn crop, weed kill; type: in vivo, Ipomoea sp.; conditions: Ipomoea, 3-4 weeks after planting
Text: as §1, §2, §3, §4

[10] = test system: Sorghum; experiment: Example 18 phytotoxic effects on crop stands in different soils; type: in vivo, grain sorghum
Procedure: as §5, §6, §7, §8, §9

[11] = 0.5 lb/A, Heavy Soil 5-5.5% O.M.
[12] = 0.5 lb/A, Medium Soil 2.0% O.M.
[13] = 1.0 lb/A, Heavy Soil 5-5.5% O.M.
[14] = 1.0 lb/A, Medium Soil 2.0% O.M.
[15] = 2.0 lb/A, Heavy Soil 5-5.5% O.M.
[16] = 2.0 lb/A, Medium Soil 2.0% O.M.

`C#CCN(C(=O)CCl)c1c(CC)cccc1CC` [Example 9, 2-Chloro-2',6'-diethyl-N-propargylacetanilide] was tested, and the “phytotoxic effects on corn” value [1] was “no phytotoxic effects”, the mortality at 280.212 g/ha ([2]; 0.25 lb/A) was 0% and the mortality at 560.425 g/ha ([2]; 0.5 lb/A) was 37%. The mortality at 1120.85 g/ha ([2]; 1.0 lb/A) was 80%, the mortality at 2241.7 g/ha ([2]; 2.0 lb/A) was 100% and the mortality at 280.212 g/ha ([3]; 0.25 lb/A) was 73%. It also gave a mortality at 560.425 g/ha ([3]; 0.5 lb/A) of 88%, a mortality at 1120.85 g/ha ([3]; 1.0 lb/A) of 95% and a mortality at 2241.7 g/ha ([3]; 2.0 lb/A) of 100%. For the same compound, the mortality at 280.212 g/ha ([4]; 0.25 lb/A) was 0%, the mortality at 560.425 g/ha ([4]; 0.5 lb/A) was 0% and the mortality at 1120.85 g/ha ([4]; 1.0 lb/A) was 6%. The mortality at 2241.7 g/ha ([4]; 2.0 lb/A) was 18%, the “% Weed Control, Prickly Sida” value ([5]; 0.25 lb/A) was 0% and the “% Weed Control, Prickly Sida” value ([5]; 0.5 lb/A) was 80%. The “% Weed Control, Prickly Sida” value ([5]; 1.0 lb/A) was 42%, the “% Weed Control, Prickly Sida” value ([5]; 2.0 lb/A) was 93% and the “% Phytotoxicity, Soybeans” value [6, 11] was 0%. For the same compound, the “% Phytotoxicity, Soybeans” value [6, 12] was 0%, the “% Phytotoxicity, Soybeans” value ([6]; 0.5 lb/A, Sand 0.7% O.M.) was 0% and the “% Phytotoxicity, Soybeans” value ([6]; 0.5 lb/A, Sand 1.8% O.M.) was 0%. The “% Phytotoxicity, Soybeans” value [6, 13] was 0%, the “% Phytotoxicity, Soybeans” value [6, 14] was 0% and the “% Phytotoxicity, Soybeans” value ([6]; 1.0 lb/A, Sand 0.7% O.M.) was 0%. For the same compound, the “% Phytotoxicity, Soybeans” value ([6]; 1.0 lb/A, Sand 1.8% O.M.) was 0%, the “% Phytotoxicity, Soybeans” value [6, 15] was 0% and the “% Phytotoxicity, Soybeans” value [6, 16] was 0%. For the same compound, the “% Phytotoxicity, Soybeans” value ([6]; 2.0 lb/A, Sand 0.7% O.M.) was 0%, the “% Phytotoxicity, Soybeans” value ([6]; 2.0 lb/A, Sand 1.8% O.M.) was 0% and the “% Control, Barnyardgrass” value [7, 11] was 90%. For the same compound, the “% Control, Barnyardgrass” value [7, 12] was 95%, the “% Control, Barnyardgrass” value ([7]; 0.5 lb/A, Sand 0.7% O.M.) was 60% and the “% Control, Barnyardgrass” value ([7]; 0.5 lb/A, Sand 1.8% O.M.) was 85%. The “% Control, Barnyardgrass” value [7, 13] was 98%, the “% Control, Barnyardgrass” value [7, 14] was 100% and the “% Control, Barnyardgrass” value ([7]; 1.0 lb/A, Sand 0.7% O.M.) was 90%. The “% Control, Barnyardgrass” value ([7]; 1.0 lb/A, Sand 1.8% O.M.) was 90%, the “% Control, Barnyardgrass” value [7, 15] was 100% and the “% Control, Barnyardgrass” value [7, 16] was 100%. For the same compound, the “% Control, Barnyardgrass” value ([7]; 2.0 lb/A, Sand 0.7% O.M.) was 100%, the “% Control, Barnyardgrass” value ([7]; 2.0 lb/A, Sand 1.8% O.M.) was 100% and the “% Phytotoxicity, Corn” value [8, 11] was 0%. For the same compound, the “% Phytotoxicity, Corn” value [8, 12] was 0%, the “% Phytotoxicity, Corn” value ([8]; 0.5 lb/A, Sand 0.7% O.M.) was 0% and the “% Phytotoxicity, Corn” value ([8]; 0.5 lb/A, Sand 1.8% O.M.) was 0%. For the same compound, the “% Phytotoxicity, Corn” value [8, 13] was 0%, the “% Phytotoxicity, Corn” value [8, 14] was 0% and the “% Phytotoxicity, Corn” value ([8]; 1.0 lb/A, Sand 0.7% O.M.) was 0%. The “% Phytotoxicity, Corn” value ([8]; 1.0 lb/A, Sand 1.8% O.M.) was 0%, the “% Phytotoxicity, Corn” value [8, 15] was 10% and the “% Phytotoxicity, Corn” value [8, 16] was 10%. The “% Phytotoxicity, Corn” value ([8]; 2.0 lb/A, Sand 0.7% O.M.) was 0%, the “% Phytotoxicity, Corn” value ([8]; 2.0 lb/A, Sand 1.8% O.M.) was 0% and the mortality at 280.212 g/ha ([9]; 0.25 lb/A) was 0%. It also gave a mortality at 560.425 g/ha ([9]; 0.5 lb/A) of 0%, a mortality at 1120.85 g/ha ([9]; 1.0 lb/A) of 0% and a mortality at 2241.7 g/ha ([9]; 2.0 lb/A) of 3%. The “% Phytotoxicity, Sorghum” value [10, 11] was 35%, the “% Phytotoxicity, Sorghum” value [10, 12] was 40% and the “% Phytotoxicity, Sorghum” value ([10]; 0.5 lb/A, Sand 0.7% O.M.) was 0%. For the same compound, the “% Phytotoxicity, Sorghum” value ([10]; 0.5 lb/A, Sand 1.8% O.M.) was 10%, the “% Phytotoxicity, Sorghum” value [10, 13] was 75% and the “% Phytotoxicity, Sorghum” value [10, 14] was 55%. For the same compound, the “% Phytotoxicity, Sorghum” value ([10]; 1.0 lb/A, Sand 0.7% O.M.) was 10%, the “% Phytotoxicity, Sorghum” value ([10]; 1.0 lb/A, Sand 1.8% O.M.) was 30% and the “% Phytotoxicity, Sorghum” value [10, 15] was 99%. For the same compound, the “% Phytotoxicity, Sorghum” value [10, 16] was 95%, the “% Phytotoxicity, Sorghum” value ([10]; 2.0 lb/A, Sand 0.7% O.M.) was 30% and the “% Phytotoxicity, Sorghum” value ([10]; 2.0 lb/A, Sand 1.8% O.M.) was 70%.
